Legend:
Test in all cases: Minimum inhibitory concentration, microtitre plate doubling dilutions
Type in all cases: cell-based
Escherichia coli = details: for MIC versus organism E.c: biocide alone, visual growth after 24 hours at 37° C.
Experimental: (§1) Bacteria were grown to stationary phase (18 h) in nutrient broth (approximately 10^9 organisms per ml). A 0.1% (v/v) inoculum was used to seed fresh medium and 100 μl of this was added to each well of a microtitre plate, except for the first well which contained 200 μl. Using doubling dilutions, the concentration of each antimicrobial was varied in each well along the ordinate axis. The presence or absence of growth was determined by visual inspection after 24 hours incubation at 37° C.

Pseudomonas aeruginosa = details: for MIC versus organism Ps.a: biocide alone, visual growth after 24 hours at 37° C.
Experimental: as §1

Staphylococcus aureus = details: for MIC versus organism S.a: biocide alone, visual growth after 24 hours at 37° C.
Experimental: as §1

Row | Compound | MIC versus organism E.c (Escherichia coli) [ppm] | MIC versus organism Ps.a (Pseudomonas aeruginosa) [ppm] | MIC versus organism S.a (Staphylococcus aureus) [ppm] | MIC (Escherichia coli; Escherichia coli, 24 h, read-out: MIC versus organism E.c) [µg/mL] | MIC (Pseudomonas aeruginosa; Pseudomonas aeruginosa, 24 h, read-out: MIC versus organism Ps.a) [µg/mL] | MIC (Staphylococcus aureus; Staphylococcus aureus, 24 h, read-out: MIC versus organism S.a) [µg/mL]
1 | Alkyldimethylbenzylammonium chloride [Barquat 4214] | 8 | 32 | 2 |  |  | 
2 | Benzyl C12-16 alkyl dimethyl chlorides [Barquat DM-80] | 12 | 32 | 2 |  |  | 
3 | CCCCCCCCCCCCN(CCCN)CCCN [Lonzabac 12.30, N-3-aminopropyl-N-dodecylpropane-1-3-diamine] | 16 | 32 | 8 |  |  | 
4 | CCCCCCCCCC[N+](C)(C)CCCCCCCCCC.[Cl-] [Bardac 22.70, Didecyldimethyl ammonium chloride] |  |  |  | 4 | 8 | 1
5 | Didecyl dimethyl ammonium carbonate/bicarbonate [Carboquat HE] | 4 | 8 | 1 |  |  | 
6 | [Na+].[O-][n+]1ccccc1[S-] [Sodium Omadine, Na pyrithione] | 500 | 16 | 1 |  |  | 
7 | N,N-Didecyl-N-methyl-poly(oxyethyl)ammonium propionate [Bardap 26] | 4 | 16 | 1 |  |  | 

Source: US20200305437A1, “SYNERGISTIC ANTIMICROBIAL COMBINATIONS CONTAINING QUATERNARY AMMONIUM BIOCIDE” (LONZA, LLC, priority 2016, published 2020)
